From ChEMBL document CHEMBL3272024, “(Acylaryloxy)acetic acid diuretics. 1. (2-Alkyl- and 2,2-dialkyl-1-oxo-5-indanyloxy)acetic acids” (J Med Chem, 1977)

What was measured:
[1] = system: Pan troglodytes; experiment: Ratio of change in urate excretion to change in inulin excretion in chimpanzee in urine at 5 mg/kg, po; assay type: functional
[2] = system: Pan troglodytes; experiment: Natriuretic activity in chimpanzee assessed as change sodium level in urine measured per min at 5 mg/kg, po; assay type: functional
[3] = system: Canis familiaris; experiment: Diuretic activity in dog assessed as sodium level in urine collected for 2 hrs at 5 mg/kg, iv over a period of 5 mins (reference value: 5 to 30 microEq); assay type: functional, Canis lupus familiaris
[4] = system: Canis familiaris; experiment: Diuretic activity in dog assessed as urine volume collected for 2 hrs at 5 mg/kg, iv over a period of 5 mins (reference value: 1 to 2 mL); assay type: functional, Canis lupus familiaris
[5] = system: Canis familiaris; experiment: Diuretic activity in dog assessed as chloride level in urine collected for 2 hrs at 5 mg/kg, iv over a period of 5 mins (reference value: 1 to 10 microEq); assay type: functional, Canis lupus familiaris
[6] = system: Canis familiaris; experiment: Diuretic activity in dog assessed as potassium level in urine collected for 2 hrs at 5 mg/kg, iv over a period of 5 mins (reference value: 5 to 30 microEq); assay type: functional, Canis lupus familiaris
[7] = Acute toxicity in iv dosed mouse; assay type: organism-based; settings: in vivo
[8] = system: Rattus norvegicus; experiment: Natriuretic activity in po dosed Charles River rat assessed as sodium level in urine per cage collected 0.5 hrs interval relative to 2-(3,6,7-trimethyl-1-oxo-2,3-dihydro-1H-inden-5-yloxy)acetic acid; assay type: functional
[9] = system: Canis familiaris; experiment: Diuretic activity in dog assessed as urine volume collected for 2 hrs at 1.5 mg/kg, iv over a period of 5 mins (reference value: 1 mL); assay type: functional, Canis lupus familiaris
[10] = system: Canis familiaris; experiment: Diuretic activity in dog assessed as potassium level in urine collected for 2 hrs at 1.5 mg/kg, iv over a period of 5 mins (reference value: 18 microEq); assay type: functional, Canis lupus familiaris
[11] = system: Canis familiaris; experiment: Diuretic activity in dog assessed as sodium level in urine collected for 2 hrs at 1.5 mg/kg, iv over a period of 5 mins (reference value: 29 microEq); assay type: functional, Canis lupus familiaris
[12] = system: Canis familiaris; experiment: Diuretic activity in dog assessed as chloride level in urine collected for 2 hrs at 1.5 mg/kg, iv over a period of 5 mins (reference value: 1 microEq); assay type: functional, Canis lupus familiaris

| Structure (SMILES) | Ratio [1] | Activity [2] [uEq] | other results |
| --- | --- | --- | --- |
| Cc1c(OCC(=O)O)cc2c(c1C)C(=O)C(C1CCCC1)C2 (stereo unspecified) | 0.43 | 0 | – |
| O=C(O)COc1cc2c(c(Cl)c1Cl)C(=O)C1(CCCC1)C2 | 0.11 | 624 | Activity [3]: 330 uEq; Activity [4]: 5 mL; Activity [5]: 254 uEq; Activity [6]: 47 uEq |
| CCCC1Cc2cc(OCC(=O)O)c(Cl)c(Cl)c2C1=O (stereo unspecified) | 0.19 | – | – |
| CCC1C(=O)c2c(cc(OCc3nnn[nH]3)c(Cl)c2Cl)C1c1ccccc1 (stereo unspecified) | 0.06 | 5 | – |
| CC(C)C1(C)Cc2cc(OCC(=O)O)c(Cl)c(Cl)c2C1=O (racemic) | – | – | Activity [3]: 185 uEq; Activity [4]: 2 mL; LD50 [7]: 244 mg/kg; Activity [5]: 218 uEq; Ratio ([1]; 5 mg/kg): 0.03; Activity [6]: 35 uEq; Ratio [8]: 53; Activity ([2]; 5 mg/kg): 506 uEq |
| Cc1c(OCC(=O)O)cc2c(c1C)C(=O)C(C(C)C)C2 (stereo unspecified) | 0.15 | 153 | Activity [3]: 154 uEq; Activity [4]: 2 mL; Activity [5]: 100 uEq; Activity [6]: 15 uEq |
| CCC1(C2CCCC2)Cc2cc(OCC(=O)O)c(Cl)c(Cl)c2C1=O (stereo unspecified) | 0.12 | 231 | – |
| CC(C)(C)C1Cc2cc(OCC(=O)O)c(Cl)c(Cl)c2C1=O (stereo unspecified) | 0 | 106 | – |
| CCC1(C)Cc2cc(OCC(=O)O)c(Cl)c(Cl)c2C1=O (stereo unspecified) | 0.07 | 520 | Activity [3]: 360 uEq; Activity [4]: 4 mL; LD50 [7]: 239 mg/kg; Activity [5]: 450 uEq; Activity [6]: 62 uEq; Ratio [8]: 15 |
| O=C(O)COc1cc2c(c(Cl)c1Cl)C(=O)C1(CCCCC1)C2 | 0.05 | 489 | – |
| NS(=O)(=O)c1cc(C(=O)O)c(NCc2ccco2)cc1Cl [FUROSEMIDE] | -0.02 | 1035 | Activity [9]: 3 mL; Activity [10]: 141 uEq; Activity [11]: 960 uEq; Activity [12]: 1081 uEq |
| CCC1C(=O)c2c(cc(OCC(=O)O)c(Cl)c2Cl)C1c1ccccn1 (stereo unspecified) | 0.08 | 0 | – |
| O=C(O)COc1cc2c(c(Cl)c1Cl)C(=O)C(C1CCCC1)C2 (single isomer, unassigned; (+)) | – | – | Ratio ([1]; 5 mg/kg): 0.26; Activity ([2]; 5 mg/kg): 300 uEq |
| CC(C)C1(C)Cc2cc(OCc3nnn[nH]3)c(Cl)c(Cl)c2C1=O (stereo unspecified) | 0.17 | 174 | – |
| CC1(C)Cc2cc(OCC(=O)O)c(Cl)c(Cl)c2C1=O | 0.04 | 535 | LD50 [7]: 268 mg/kg; Ratio [8]: 3.9 |
| O=C(O)COc1cc2c(c(Cl)c1Cl)C(=O)C(C1CCCC1)C2c1ccccc1 (stereo unspecified) | 0.25 | 22 | – |
| CCC1Cc2cc(OCC(=O)O)c(Cl)c(Cl)c2C1=O (stereo unspecified) | 0.09 | 427 | LD50 [7]: 245 mg/kg; Ratio [8]: 2.8 |
| CC1c2cc(OCc3nnn[nH]3)c(Cl)c(Cl)c2C(=O)C1C1CCCC1 (stereo unspecified) | 0.07 | 19 | – |
| O=C(O)COc1cc2c(c(Cl)c1Cl)C(=O)C(C1CCCC1)C2 (single isomer, unassigned; (-)) | – | – | Ratio ([1]; 5 mg/kg): 0.1; Activity ([2]; 5 mg/kg): 292 uEq |
| CC12CCCCC1c1cc(OCC(=O)O)c(Cl)c(Cl)c1C2=O (stereo unspecified) | 0.39 | 406 | – |
| CC(C)C1(C)Cc2cc(OCC(=O)O)c(Cl)c(Cl)c2C1=O (single isomer, unassigned; enantiomer 2) | – | – | Ratio ([1]; 5 mg/kg): 0.06; Activity ([2]; 5 mg/kg): 992 uEq |
| CC1(C2CCCC2)Cc2cc(OCC(=O)O)c(Cl)c(Cl)c2C1=O (single isomer, unassigned; enantiomer 1) | – | – | Ratio ([1]; 5 mg/kg): 0.1; Activity ([2]; 5 mg/kg): 325 uEq |
| CCCCC1Cc2cc(OCC(=O)O)c(Cl)c(Cl)c2C1=O (stereo unspecified) | 0.11 | 126 | – |
| CCC1(C)C(=O)c2c(cc(OCC(=O)O)c(Cl)c2Cl)C1c1ccccc1 (stereo unspecified) | 0 | 0 | – |
| CC1Cc2cc(OCC(=O)O)c(Cl)c(Cl)c2C1=O (stereo unspecified) | – | – | LD50 [7]: 354 mg/kg; Ratio [8]: 1 |

| Structure (SMILES) | Ratio [1] | Activity [2] [uEq] | other results |
| --- | --- | --- | --- |
| CC1(C2CCCC2)Cc2cc(OCC(=O)O)c(Cl)c(Cl)c2C1=O (racemic) | – | – | Activity [3]: 454 uEq; Activity [4]: 4 mL; LD50 [7]: 213 mg/kg; Activity [5]: 478 uEq; Ratio ([1]; 5 mg/kg): 0.2; Activity [6]: 48 uEq; Ratio [8]: 5.4; Activity ([2]; 5 mg/kg): 425 uEq |
| NS(=O)(=O)c1cc2c(cc1Cl)NCNS2(=O)=O [HYDROCHLOROTHIAZIDE] | – | 144 | Activity [3]: 166 uEq; Activity [4]: 3 mL; Activity [5]: 156 uEq; Activity [6]: 33 uEq |
| CCCC1(CC)Cc2cc(OCC(=O)O)c(Cl)c(Cl)c2C1=O (stereo unspecified) | 0.05 | 341 | – |
| O=C(O)COc1cc2c(c(Cl)c1Cl)C(=O)C(C1CCCC1)C2 (stereo in doubt; 4p) | – | – | Activity [3]: 20 uEq; Activity [4]: 2 mL; LD50 [7]: 222 mg/kg; Activity [5]: 5 uEq; Ratio ([1]; 5 mg/kg): 0.18; Activity [6]: 37 uEq; Ratio [8]: 1.8; Activity ([2]; 5 mg/kg): 223 uEq |
| CC1(C)C(=O)c2c(cc(OCC(=O)O)c(Cl)c2Cl)C1c1ccccc1 (stereo unspecified) | 0.1 | 22 | – |
| CC1(Cc2ccccc2)Cc2cc(OCC(=O)O)c(Cl)c(Cl)c2C1=O (stereo unspecified) | 0.18 | 251 | – |
| CCC1C(=O)c2c(cc(OCC(=O)O)c(Cl)c2Cl)C1c1cccnc1 (stereo unspecified) | 0.07 | 25 | – |
| O=C(O)COc1cc2c(c(Cl)c1Cl)C(=O)C(C1CCCCC1)C2 (stereo unspecified) | 0.21 | 310 | – |
| O=C1c2c(cc(OCc3nnn[nH]3)c(Cl)c2Cl)CC12CCCC2 | 0.05 | 0 | – |
| CC(C)C1C(=O)c2c(cc(OCC(=O)O)c(Cl)c2Cl)C1c1ccccc1 (stereo unspecified) | 0.25 | 240 | – |
| CC(C)C1Cc2cc(OCc3nnn[nH]3)c(Cl)c(Cl)c2C1=O (stereo unspecified) | 0.07 | 42 | – |
| O=C(O)COc1cc2c(c(Cl)c1Cl)C(=O)C(CC1CCCC1)C2 (stereo unspecified) | 0.05 | 105 | – |
| C=CCC1(C)Cc2cc(OCC(=O)O)c(Cl)c(Cl)c2C1=O (stereo unspecified) | 0.01 | 81 | Activity [3]: 175 uEq; Activity [4]: 4 mL; Activity [5]: 171 uEq; Activity [6]: 37 uEq |
| CCC1C(=O)c2c(cc(OCC(=O)O)c(Cl)c2Cl)C1c1ccccc1 (stereo unspecified) | 0.28 | 223 | – |
| CC(C)C1(C)Cc2cc(OCC(=O)O)c(Cl)c(Cl)c2C1=O (single isomer, unassigned; (+)) | – | – | Ratio ([1]; 5 mg/kg): 0.41; Activity ([2]; 5 mg/kg): 1593 uEq |
| CC1C(=O)c2c(cc(OCC(=O)O)c(Cl)c2Cl)C1c1ccccc1 (stereo unspecified) | 0.12 | 64 | – |
| O=C1c2c(cc(OCc3nnn[nH]3)c(Cl)c2Cl)CC12CCCCC2 | 0.02 | 0 | – |
| O=C(O)COc1cc2c(c(Cl)c1Cl)C(=O)C1CCCCC21 (stereo unspecified) | 0.2 | 85 | – |
| CCC1Cc2cc(OCc3nnn[nH]3)c(Cl)c(Cl)c2C1=O (stereo unspecified) | 0.11 | 28 | – |
| CC(C)C1Cc2cc(OCC(=O)O)c(Cl)c(Cl)c2C1=O (stereo unspecified) | 0.18 | 649 | Activity [3]: 281 uEq; Activity [4]: 4 mL; LD50 [7]: 505 mg/kg; Activity [5]: 330 uEq; Activity [6]: 44 uEq; Ratio [8]: 3.2 |
| CC1(C2CCCC2)Cc2cc(OCC(=O)O)c(Cl)c(Cl)c2C1=O (single isomer, unassigned; enantiomer 2) | – | – | Ratio ([1]; 5 mg/kg): 0.17; Activity ([2]; 5 mg/kg): 268 uEq |
| Cc1c(OCC(=O)O)cc2c(c1Cl)C(=O)C(C1CCCC1)C2 (stereo unspecified) | 0.14 | 141 | – |
| Cc1c(OCC(=O)O)cc2c(c1Cl)C(=O)C(C)(C1CCCC1)C2 (stereo unspecified) | 0.24 | 86 | – |
| Cc1c(OCC(=O)O)cc2c(c1Cl)C(=O)C(C(C)C)C2 (stereo unspecified) | 0.07 | 185 | Activity [3]: 218 uEq; Activity [4]: 3 mL; Activity [5]: 204 uEq; Activity [6]: 50 uEq |
| O=C1c2c(cc(OCc3nnn[nH]3)c(Cl)c2Cl)CC1C1CCCC1 (stereo unspecified) | 0.18 | 56 | – |
